Structures can show the parent of a compound that is named as a salt.
Experiments:
[1] = tested on: Megoura viciae; assay: Vetch aphid (Megoura viciae) mortality on sprayed bean leaf disks in microtiterplates; assay type: in vivo; conditions: foliar, 144 h, bean leaf disks sprayed with 2.5 μl, 6 days, read-out: mortality in comparison with untreated controls
Experimental: The active compounds were formulated in 1:3 DMSO:water. Bean leaf disks were placed into microtiterplates filled with 0.8% agar-agar and 2.5 ppm OPUS™. The leaf disks were sprayed with 2.5 μl of the test solution and 5 to 8 adult aphids were placed into the microtiterplates which were then closed and kept at 22-24° C. and 35-45% under fluorescent light for 6 days. Mortality was assessed on the basis of vital, reproduced aphids. Tests were replicated 2 times.

| SMILES | mortality at 2500 ppm [1] [%] | melting point [°C] |
| --- | --- | --- |
| CC(=O)N1CCN=C1NC(Cc1ccccc1)c1ccccc1 (centres unmarked) [Example 2.1, 1-[2-(1,2-Diphenylethylamino)-4,5-dihydroimidazol-1-yl]-ethanone] | > 80 | – |
| Clc1cccc(CC(N=C2NCCN2)c2ccccc2)c1 (centres unmarked) (as salt: salt) [Example 1.1, [2-(3-Chloro-phenyl)-1-phenyl-ethyl]-(4,5-dihydro-1H-imidazol-2-yl)-amine hydroiodide] | – | 162 to 164 |

Reference: patent US7871960B2, “1-(Imidazolin-2-yl)amino-1,2-diphenylethane compounds for combating animal pests” (BASF SE, priority 2005, dated 2011)
